Laboratory results: patent publication EP0840781B1, “METHODS AND DEVICES FOR THE REMOVAL OF PSORALENS FROM BLOOD PRODUCTS” (Cerus Corporation, priority 1995, dated 1996)

Tested on: R17
Assay: r-17 bacteriophage assay: R17 treated with compound and UVA, remaining titer by plaque count on Hfr 3000 bacteria
Format: cell-based
Details: for R17 inactivation efficiency compared with AMT: varying concentration (Tables 7 and 8, FIGS. 6-10)
Outline: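 R17 phage (10^9/mL in DMEM) was mixed with test compound and UVA-irradiated for 1–10 minutes; some runs held compound constant and varied UV dose in 1.0 J/cm^2 steps. Serial dilutions were plated on Hfr 3000 bacteria overnight at 37 °C, and remaining titer came from plaque counts. Controls: untreated phage, UV-only and dark.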

[1] = 8 µM, 1 Minute Irradiation, Starting Titer Approx. 7.2 Logs (Table 7)
[2] = 16 µM, 1 Minute Irradiation, Starting Titer Approx. 7.1 Logs (Table 9)
[3] = 16 µM, 1 Minute Irradiation, Starting Titer Approx. 7.2 Logs (Table 7)
[4] = 16 µM, 1 Minute irradiation = 1.2 J/cm^2, Starting Titer Approx. 7.1 Logs (Table 8)
[5] = 32 µM, 1 Minute Irradiation, Starting Titer Approx. 7.2 Logs (Table 7)
[6] = 32 µM, 1 Minute irradiation = 1.2 J/cm^2, Starting Titer Approx. 7.1 Logs (Table 8)

Structure (SMILES) | R17 Log Kill [1] | R17 Log Kill [2] | R17 Log Kill [3] | R17 Log Kill [4] | R17 Log Kill (32 µM, 1 Minute Irradiation, Starting Titer Approx. 7.1 Logs (Table 9)) | R17 Log Kill [5] | R17 log kill (32 µM) (32 µM, 1 Minute Irradiation, Starting Titer Approx. 7.5 Logs (Table 6)) | R17 Log Kill [6] | R17 Log Kill (8 µM, 1 Minute Irradiation, Starting Titer Approx. 7.1 Logs (Table 9)) | R17 Log Kill (64 µM, 1 Minute irradiation = 1.2 J/cm^2, Starting Titer Approx. 7.1 Logs (Table 8)) | efficiency at inactivating R17 compared with AMT (constant concentration, varying doses of UV light 1.0-3.0 J/cm^2 (FIGS. 11-17)) | R17 inactivation efficiency compared with AMT
Cc1oc2c(C)c3oc(=O)cc(C)c3cc2c1CN [AMT, 4'-Aminomethyl-4,5',8-trimethylpsoralen, reference compound] | 2.7 | >6 | 4.6 | 4.5 | >6 | >6.2 | >6.7 | 4.8 | – | – | – | –
Cc1oc2c(C)c3oc(=O)cc(C)c3cc2c1CNCCCCN [Compound 6, 4'-(6-amino-2-aza)hexyl4,5',8-trimethylpsoralen] | – | >6 | – | 6.1 | – | – | – | >6.1 | >6 | >6.1 | more efficient at inactivating R17 than was AMT | significantly higher inactivation efficiency than does AMT
Cc1oc2c(C)c3oc(=O)cc(C)c3cc2c1COCCN [Compound 2, 4'-(4-amino-2-oxa)butyl-4,5',8-trimethylpsoralen] | 3.8 | – | >6.2 | – | – | >6.2 | – | – | – | – | – | significantly higher inactivation efficiency than does AMT
